Where a name gives a salt, the structure may show the parent alone.
Legend:
[1] = LD50 /24 hours, intravenous route in mice (method of Miller and Tainter); settings: mouse, in vivo, read-out: LD50 /24 hours/kg of body weight
Experimental: 1, 53 mg for derivative no. 2, 89 mg for derivative no. 3, 57 mg for derivative no. 4, 41 mg for derivative no. 5, 62 mg for derivative no. 6, 66 mg for derivative no. 7, 74 mg for derivative no. 8 and 100 mg for derivative no. 9.

livers and aortas = assay: Rabbits kept on a hypercholesterolaemic diet: macroscopic examination of livers and aortas; format: in vivo; settings: 10 mg/kg daily oral, end of experiment; for aortic atheromatous lesions: marked in intensity from 0 to 4; for fatty infiltrations of the liver: marked in size from 0 to 3
Experimental: (§1) (b) This study was carried out on rabbits kept on a hypercholesterolaemic diet. The rabbits are divided into batches of 40 animals; the control batch (A) receives no treatment, whereas the treated batches are given the medicines according to the invention. Thus, derivative no. 1 is administered to the animals in batch B, derivative no. 5 to those in batch C and derivative no. 7 to those in batch D, by oral route, daily, in dosage of 10 mg/kg. On the first day of the experiments and then every 15 days, for a period of 75 days, biological tests are carried out on all the animals, whereby the various elements which indicate dyslipaemia are determined: total cholesterol (T), esterified cholesterol (E), free cholesterol (L), esterification ratio (E/T), Kunkel phenol test (K1), Kunkel phenol test (K2), Burstein test with dextrane (B) and serum lipids (LS).
At the end of the experiment, all the animals are killed and autopsies are performed on them; macroscopic examinations of their livers and aortas are then carried out, and the fatty infiltrations of the liver are marked, in size, from 0 to 3 and the aortic atheromatous lesions are marked, in intensity, from 0 to 4.
(§2) The results, representing the average values determined with each batch, are assembled in the following Tables: […]

dyslipaemia = assay: Hypocholesterolaemic activity: rabbits kept on a hypercholesterolaemic diet, biological tests of dyslipaemia; format: in vivo; parameters: total cholesterol (T) / esterified cholesterol (E) / free cholesterol (L) / Burstein test with dextrane (B) / serum lipids (LS): unit not given here; settings: 10 mg/kg daily oral
Experimental: as §1, §2

[2] = test system: cholesterol level in the plasma; assay: Hypocholesterolaemic activity: test using propyl thiouracil; format: in vivo; settings: rats, 10 mg/kg orally, 11th day
From the text: (a) Test using propyl thiouracil ([…] and Coll., J. Pharmacol. Exper. Therap., 1963, 142, 132-136). […] On the 11th day of the experiment, blood samples are taken and the free cholesterol and total cholesterol are estimated.

[3] = test system: stretching movements induced by acetic acid; assay: Analgesic activity: acetic acid stretching movements (method of Koster, Anderson and De Beer); format: in vivo; settings: mice, 50 mg/kg oral thirty minutes before acetic acid; reduction in stretching movements in next thirty minutes
Experimental: The intraperitoneal injection of a dilute solution of acetic acid causes, in mice, repeated characteristic stretching movements under the effect of the pain. The oral administration of a dosage of 50 mg/kg of the test derivative, thirty minutes before the injection of acetic acid, reduces the number of movements in the next thirty minutes. In this way, the average number of stretching movements and the percentage analgesia obtained, corresponding to the percentage reduction in the number of stretching movements, compared with the controls, are determined.

[4] = test system: carrageenin-induced oedema; assay: Anti-inflammatory activity: localised carrageenin-induced oedema; format: in vivo; settings: rat, 10 mg/kg oral (four administrations)
Experimental: A 1% carrageenin solution (0.1 ml) is injected into the metatarsal flexors of the right hind paw of the rat at time 0. The animals in the treated batch are also given by oral route, 10 mg/kg of the test derivative, one hour before, then at the same time as the injection of the phlogogenic agent, then one hour and 21/2 hours afterwards, respectively. The measurements taken with a Roch micrometer at time 0, then 1 hour, 2 hours, 3 hours and 5 hours after administration of the carrageenin make it possible to determine, as a function of time, the percentage anti-inflammatory activity compared with the control batch.

ovalbumin oedema = assay: Anti-inflammatory activity: generalised ovalbumin oedema; format: in vivo; settings: rat, 50 mg oral one hour before and at injection of ovalbumin
Experimental: The rat is given a simultaneous intraperitoneal injection of 1 ml of ovalbumin and 0.5 ml of a 1% aqueous solution of Evans blue. Moreover, 50 mg of the test derivative are administered orally to the animals of the test batches one hour before and at the same time as the injection of ovalbumin. The intensity of the phenomenon thus induced is given a mark from 1 to 5, depending on the progression of the inflammatory syndrome. Thus, the average oedematous intensity and the percentage reduction in the oedematous reaction, compared with the control, are determined.

| Compound | LD50 at 24 h [1] | aortic atheromatous lesions (livers and aortas) | fatty infiltrations of the liver (livers and aortas) | Burstein test with dextrane (B) (dyslipaemia; 1st Day) | Kunkel phenol test (K1) (dyslipaemia; 1st Day) | Kunkel phenol test (K2) (dyslipaemia; 1st Day) | esterification ratio (E/T) (dyslipaemia; 1st Day) | esterified cholesterol (E) (dyslipaemia; 1st Day) | free cholesterol (L) (dyslipaemia; 1st Day) | serum lipids (LS) (dyslipaemia; 1st Day) | total cholesterol (T) (dyslipaemia; 1st Day) | Burstein test with dextrane (B) (dyslipaemia; 30th Day) | Kunkel phenol test (K1) (dyslipaemia; 30th Day) | Kunkel phenol test (K2) (dyslipaemia; 30th Day) | esterification ratio (E/T) (dyslipaemia; 30th Day) | esterified cholesterol (E) (dyslipaemia; 30th Day) | free cholesterol (L) (dyslipaemia; 30th Day) | Free cholesterol [2] | Total cholesterol [2] | average percentage of analgesia [3] | further results |
| --- | --- | --- | --- | --- | --- | --- | --- | --- | --- | --- | --- | --- | --- | --- | --- | --- | --- | --- | --- | --- | --- |
| Cl.Cl.Cl.Clc1ccc(N2CCN(CCCNC3CCCCC3)CC2)cc1 [Derivative no. 5, 1-(3-cyclohexylamino-propyl)-4-(p-chlorophenyl)-piperazine trihydrochloride] | 41 mg/kg | 1.2 | 1.0 | 10.9 | 8.1 | 12.6 | 0.49 | 0.28 | 0.29 | 2.1 | 0.57 | 21.1 | 18.8 | 25.0 | 0.62 | 0.91 | 0.54 | 0.16 g/L | 0.55 g/L | – | serum lipids (LS) (dyslipaemia; 30th Day): 2.85; total cholesterol (T) (dyslipaemia; 30th Day): 1.45; Burstein test with dextrane (B) (dyslipaemia; 75th Day): 35.9; Kunkel phenol test (K1) (dyslipaemia; 75th Day): 32.8; Kunkel phenol test (K2) (dyslipaemia; 75th Day): 41.8; esterification ratio (E/T) (dyslipaemia; 75th Day): 0.60; esterified cholesterol (E) (dyslipaemia; 75th Day): 1.78; free cholesterol (L) (dyslipaemia; 75th Day): 1.14; serum lipids (LS) (dyslipaemia; 75th Day): 4.1; total cholesterol (T) (dyslipaemia; 75th Day): 2.92 |
| Cc1ccc(N2CCN(CCCNC3CCCCC3)CC2)cc1 [Derivative no. 1, 1-(3-cyclohexylamino-propyl)-4-p-tolyl-piperazine] | 25 mg/kg | 1.4 | 0.9 | 11.1 | 8.2 | 13.7 | 0.50 | 0.28 | 0.27 | 1.95 | 0.55 | 21.2 | 18.6 | 25.4 | 0.62 | 0.92 | 0.55 | – | – | 65% | serum lipids (LS) (dyslipaemia; 30th Day): 2.91; total cholesterol (T) (dyslipaemia; 30th Day): 1.47; Burstein test with dextrane (B) (dyslipaemia; 75th Day): 35.8; Kunkel phenol test (K1) (dyslipaemia; 75th Day): 33.1; Kunkel phenol test (K2) (dyslipaemia; 75th Day): 41.9; esterification ratio (E/T) (dyslipaemia; 75th Day): 0.66; esterified cholesterol (E) (dyslipaemia; 75th Day): 1.80; free cholesterol (L) (dyslipaemia; 75th Day): 1.12; serum lipids (LS) (dyslipaemia; 75th Day): 4.03; total cholesterol (T) (dyslipaemia; 75th Day): 2.92 |
| Clc1ccc(N2CCN(CCCN3CCCCC3)CC2)cc1 [Derivative no. 2, 4-p-chlorophenyl-1-(3-piperidinopropyl)-piperazine] | 53 mg/kg | – | – | – | – | – | – | – | – | – | – | – | – | – | – | – | – | 0.13 g/L | 0.62 g/L | 72% | – |
| CCCNCCCN1CCN(c2ccc(F)cc2)CC1 [Derivative no. 3, 1-(p-fluorophenyl)-4-(3-N-propylamino)propyl piperazine trihydrochloride] | 89 mg/kg | – | – | – | – | – | – | – | – | – | – | – | – | – | – | – | – | – | – | – | Percentage anti-inflammatory activity ([4]; after 1 hr): 31%; Percentage anti-inflammatory activity ([4]; after 2 hrs): 44%; Percentage anti-inflammatory activity ([4]; after 3 hrs): 47%; Percentage anti-inflammatory activity ([4]; after 5 hrs): 49%; Percentage reduction in oedematous reaction (ovalbumin oedema; 2nd hour): 51%; Percentage reduction in oedematous reaction (ovalbumin oedema; 3rd hour): 62% |
| Clc1ccccc1N1CCN(CCCNC2CCCCC2)CC1 [Derivative no. 6, 4-(o-chlorophenyl)-1-(3-cyclohexylamino)-propylpiperazine trihydrochloride] | 62 mg/kg | – | – | – | – | – | – | – | – | – | – | – | – | – | – | – | – | 0.15 g/L | 0.53 g/L | 61% | – |
| CCCNCCCN1CCN(c2cccc(C(F)(F)F)c2)CC1 [Derivative no. 4, 1-(3-n-propylaminopropyl)-4-(m-trifluoro-methylphenyl)-piperazine dihydrochloride] | 57 mg/kg | – | – | – | – | – | – | – | – | – | – | – | – | – | – | – | – | – | – | – | Percentage anti-inflammatory activity ([4]; after 1 hr): 39%; Percentage anti-inflammatory activity ([4]; after 2 hrs): 51%; Percentage anti-inflammatory activity ([4]; after 3 hrs): 53%; Percentage anti-inflammatory activity ([4]; after 5 hrs): 58%; Percentage reduction in oedematous reaction (ovalbumin oedema; 2nd hour): 49%; Percentage reduction in oedematous reaction (ovalbumin oedema; 3rd hour): 61% |
| Cl.Cl.Clc1ccc(N2CCN(CCCN3CCCC3)CC2)cc1 [Derivative no. 7, 1-(p-chlorophenyl)-4-(3-pyrrolidino-propyl)-piperazine dihydrochloride] | 66 mg/kg | 1.4 | 1.2 | 10.6 | 8.1 | 13.2 | 0.51 | 0.27 | 0.25 | 1.98 | 0.52 | 21.2 | 18.5 | 25.2 | 0.63 | 0.96 | 0.55 | 0.12 g/L | 0.50 g/L | 69% | serum lipids (LS) (dyslipaemia; 30th Day): 2.88; total cholesterol (T) (dyslipaemia; 30th Day): 1.51; Burstein test with dextrane (B) (dyslipaemia; 75th Day): 35.6; Kunkel phenol test (K1) (dyslipaemia; 75th Day): 32.9; Kunkel phenol test (K2) (dyslipaemia; 75th Day): 50.0; esterification ratio (E/T) (dyslipaemia; 75th Day): 0.62; esterified cholesterol (E) (dyslipaemia; 75th Day): 1.83; free cholesterol (L) (dyslipaemia; 75th Day): 1.12; serum lipids (LS) (dyslipaemia; 75th Day): 3.97; total cholesterol (T) (dyslipaemia; 75th Day): 2.95 |
| Clc1ccc(N2CCN(CCCN3CCOCC3)CC2)cc1 [Derivative no. 9, dimaleate] | 100 mg/kg | – | – | – | – | – | – | – | – | – | – | – | – | – | – | – | – | 0.13 g/L | 0.57 g/L | – | – |
| COc1ccc(N2CCN(CCCN3CCCC3)CC2)cc1.Cl.Cl.Cl [Derivative no. 8, 1-(p-methoxyphenyl)-4-(3-pyrrolidino-propyl)-piperazine trihydrochloride] | 74 mg/kg | – | – | – | – | – | – | – | – | – | – | – | – | – | – | – | – | – | – | – | Percentage anti-inflammatory activity ([4]; after 1 hr): 37%; Percentage anti-inflammatory activity ([4]; after 2 hrs): 48%; Percentage anti-inflammatory activity ([4]; after 3 hrs): 50%; Percentage anti-inflammatory activity ([4]; after 5 hrs): 54%; Percentage reduction in oedematous reaction (ovalbumin oedema; 2nd hour): 55%; Percentage reduction in oedematous reaction (ovalbumin oedema; 3rd hour): 68% |

From patent US4119719A, “Piperazine compounds” (Parcor, priority 1975, dated 1978)
